Assay results from patent US20030125235A1, “Treatment of diseases associated with cytokine production with inhibitors of the tec family of protein tyrosine kinases” (priority 2000, published 2003).

Experiments:
[1] = tested on: RAW 264.7 murine macrophages; test: LPS-induced TNF-α production in RAW 264.7 murine macrophages (ELISA); format: cell-based
Method: The murine macrophage cell line, Raw 264.7 were maintained in DMEM medium supplemented with 100 units/ml penicillin/streptomycin and 5% heat-inactivated fetal calf serum at 37° C. in a humidified atmosphere containing 5% CO2.
(§1) Supernatants from experiments using either human macrophages, rheumatoid synovial cells or PBMCs were analyzed for TNF-α ot IL-1 by enzyme-linked immunosorbent assay (ELISA). The ELISA for hTNF-α was performed as described by Engelberts et al. (1991) Lymphokine Cytokine Res. 10, 60-76.
This compound was investigated for its effects on TNF-α production. […] Supernatants were then harvested and assayed for TNF-α by ELISA as described in the Methods section.

TNF production = conditions: cited from earlier work; for LPS-induced TNF production: Geng et al. 1993
Lyn, Syk or MAP kinases = conditions: Kawakami et al. 1999; cited from earlier work
Btk = Btk (Homo sapiens, UniProt Q06187); conditions: literature (Kawakami et al. 1999; Mahajan et al. 1999); cited from earlier work
Chain of Btk (Q06187 whole entry, species assumed): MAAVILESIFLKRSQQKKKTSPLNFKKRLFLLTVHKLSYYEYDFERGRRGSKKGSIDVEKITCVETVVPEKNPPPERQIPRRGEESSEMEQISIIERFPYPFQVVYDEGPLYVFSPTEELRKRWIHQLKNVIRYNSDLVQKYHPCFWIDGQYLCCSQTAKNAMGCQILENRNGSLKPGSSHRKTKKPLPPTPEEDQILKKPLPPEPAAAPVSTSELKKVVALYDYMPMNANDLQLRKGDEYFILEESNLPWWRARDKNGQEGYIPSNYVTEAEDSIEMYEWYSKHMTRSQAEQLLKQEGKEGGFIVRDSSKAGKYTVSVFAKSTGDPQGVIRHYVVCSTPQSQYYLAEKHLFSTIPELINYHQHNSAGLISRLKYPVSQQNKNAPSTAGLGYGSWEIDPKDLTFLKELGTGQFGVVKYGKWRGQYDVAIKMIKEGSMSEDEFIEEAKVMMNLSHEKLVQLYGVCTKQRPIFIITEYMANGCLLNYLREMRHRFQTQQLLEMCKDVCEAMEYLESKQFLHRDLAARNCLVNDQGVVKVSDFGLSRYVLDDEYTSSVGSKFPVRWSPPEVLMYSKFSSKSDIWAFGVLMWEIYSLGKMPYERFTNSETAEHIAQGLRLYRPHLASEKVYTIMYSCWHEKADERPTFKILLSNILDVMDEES

[2] = tested on: RA synovial membrane cultures; test: Spontaneous TNF production in rheumatoid arthritis synovial membrane cultures (ELISA); format: cell-based, human; conditions: overnight culture; FIG. 10
Method: Synovium from rheumatoid patients undergoing joint replacement surgery was dissociated by cutting into small pieces, digested with collagenase and DNase (Buchan et al., 1988). The total cell mixture consisting predominantly of T cells and macrophages were cultured at a density of 1×10^6 cells/ml in RPMI containing 100 units/ml penicillin/streptomycin and 5% heat-inactivated fetal calf serum.
as §1
RA synovial cultures were treated with herbimycin at the given concentrations. Following overnight culture the supernatants were harvested and TNF expression measured by ELISA.

human monocytes = conditions: Stefanova et al. 1993; cited from earlier work

With `C/C(O)=C(\C#N)C(=O)Nc1cc(Br)ccc1Br` [LFM-A13] the “inhibition of LPS-induced TNF-α expression” value ([1]; 200 μM, 1 h pretreatment, LPS 10 ng/ml for 4 h, FIG. 3) was 44%, the “toxicity limiting the usable concentration” value ([1]; above 200 μM) was “toxicity” and the “block of LPS-induced TNF-α expression (concentration dependence)” value ([1]; various concentrations, 1 h pretreatment, LPS 10 ng/ml for 4 h, FIG. 3) was “dose-dependent manner”.
For `N#CC(C#N)=Cc1ccc([N+](=O)[O-])c(O)c1` [tyrophostin AG126], the TNF production (TNF production; Novogradsky et al. 1994) is listed as “block”.
For `CC1=C(O)C(=O)[C@@H]2O[C@@H]2C1=O` [Terreic acid], the “effect on activity of Lyn, Syk or MAP kinases” value (Lyn, Syk or MAP kinases) is given as “without affecting the activity” and the “inhibition of Btk” value (Btk) is given as “inhibit Btk”.
In the case of `O=c1c(-c2ccc(O)cc2)coc2cc(O)cc(O)c12` [genistein], the “LPS-induced TNF production” value (TNF production) is listed as “block”.
For `CO[C@H]1[C@@H](OC)C[C@H](C)[C@@H](OC)C2=CC(=O)C=C(NC(=O)/C(C)=C/C=C\[C@H](OC)[C@@H](OC(N)=O)/C(C)=C/[C@@H]1C)C2=O` [herbimycin], the “LPS-induced TNF production” value (TNF production) is given as “block”, the “inhibition of spontaneous TNF production” value [2] is given as “potent inhibitor” and the “LPS-induced production of TNF-α and IL-1” value (human monocytes) is given as “completely blocks”.
